Test results published in patent US9670204B2, “Compounds and pharmaceutical compositions thereof for the treatment of inflammatory disorders” (Galapagos NV, priority 2013, dated 2017).

Columns and labels:
[1] = target: T1, hENPP2 (UniProtKB/SwissProt Q13822) (Homo sapiens (Human), UniProt Q13822); experiment: hENPP2 biochemical assay, LPC as substrate; details: LPC (palmitoyl 16:0) as substrate
Experimental: The principle of the assay consists in quantifying the released choline with an enzymatic method using choline oxidase and peroxidase. Choline oxydation by choline oxydase releases betaine and peroxide. The latter is quantified in presence of HRP that converts the peroxide detection agent TOOS and 4-aminoantipyrine into quinoneimine dye. The appearance of quinoneimine dye is measured spectrophotometrically at 555 nm and is proportional to the amount of choline released by ENPP2. Inhibition of ENPP2 will result in a decrease of the signal.
Compound IC50 values are determined in a hENPP2 (UniProtKB/SwissProt Sequence ref Q13822) biochemical assay using LPC as substrate.
The enzyme is diluted in 50 mM Tris-HCl pH 8.5, 500 mM NaCl, 5 mM KCl, 10 mM CaCl2, 0.1% fatty acid free BSA in a total volume of 10 μL. the reaction is started by the addition of 10 μL of 150 μM LPC (palmitoyl 16:0) diluted in the same buffer as described above and the mixture is incubated at 37° C. for 30 min. The reaction is terminated and choline quantified by the addition of a 25 μL of a mixture containing 0.6 U/mL of choline oxidase, 0.6 U/mL of peroxydase, 1.8 mM TOOS, 1.2 mM amino-antipyrine, 20 mM EGTA (stop-developer solution) diluted in the buffer described above. […] is read on the Envision after an incubation of 30 min at room temperature (Excitation 555 nm, excitation light=70%).

[2] = target: T1, hENPP2; experiment: fluorescent hENPP2 biochemical assay, FS-3 as substrate; details: read-out: FS3-IC50
Experimental: Compound IC50 values are determined in a fluorescent hENPP2 (UniProtKB/SwissProt Sequence ref Q13822) biochemical assay using the fluorogenic autotaxin substrate FS-3 as substrate. FS-3 is a doubly labeled analog of LPC wherein the fluorophore is quenched through intramolecular energy transfer. Without hENPP2, the emission of the probe is quenched. If the substrate is hydrolyzed by hENPP2, the emission of the probe is not quenched anymore resulting in a fluorescence increase.
The enzyme is diluted in 50 mM Tris-HCl pH 8.0, 250 mM NaCl, 5 mM KCl, 1 mM MgCl2, 1 mM CaCl2, 0.1% fatty acid free BSA in a total volume of 20 μL. Enzyme mixture is added to compounds and the resulting mixture is incubated for 30 min at room temperature under shaking. The reaction is started by the addition of 20 μL of 0.75 μM FS-3 diluted in the same buffer as described above and the mixture is incubated at 30° C. for 30 min. Fluorescence is read on the Envision (Excitation 485 nm, emission 520 nm).

Row | SMILES | IC50 [1] [nM] | IC50 [2] [nM]
1 | CCc1nc2ccc(N3CCN(CC(=O)NC)CC3)cn2c1N(C)c1nc(-c2ccc(F)cc2)c(C#N)s1 [Compound 22, 2-(4-(3-((5-cyano-4-(4-fluorophenyl)thiazol-2-yl)(methyl)amino)-2-ethylimidazo[1,2-a]pyridin-6-yl)piperazin-1-yl)-N-methylacetamide] | 0.01 to 100 | 0.01 to 100
2 | CCc1nc2ccc(N3CCN(C(=O)OC(C)(C)C)CC3)cn2c1N(C)c1nc(-c2ccc(F)cc2)cs1 [Compound 23, tert-butyl 4-(2-ethyl-3-((4-(4-fluorophenyl)thiazol-2-yl)(methyl)amino)imidazo[1,2-a]pyridin-6-yl)piperazine-1-carboxylate] | > 1000 | 0.01 to 100
3 | CCc1nc2ccc(N3CCN(CC(=O)N4CC(O)C4)CC3)cn2c1N(C)c1nc(-c2ccc(F)cc2)cs1 [Compound 24, 2-(4-(2-ethyl-3-((4-(4-fluorophenyl)thiazol-2-yl)(methyl)amino)imidazo[1,2-a]pyridin-6-yl)piperazin-1-yl)-1-(3-hydroxyazetidin-1-yl)ethanone] | 100 to 500 | 0.01 to 100
4 | CCc1nc2ccc(N3CCN(CC(=O)N4CC[C@H](O)C4)CC3)cn2c1N(C)c1nc(-c2ccc(F)cc2)cs1 [Compound 25, (S)-2-(4-(2-ethyl-3-((4-(4-fluorophenyl)thiazol-2-yl)(methyl)amino)imidazo[1,2-a]pyridin-6-yl)piperazin-1-yl)-1-(3-hydroxypyrrolidin-1-yl)ethanone] | 100 to 500 | 0.01 to 100
5 | CCc1nc2ccc(N3CCN(CC(=O)N4CCC(NC(C)=O)C4)CC3)cn2c1N(C)c1nc(-c2ccc(F)cc2)cs1 (stereo not drawn) [Compound 27, N-(1-(2-(4-(2-ethyl-3-((4-(4-fluorophenyl)thiazol-2-yl)(methyl)amino)imidazo[1,2-a]pyridin-6-yl)piperazin-1-yl)acetoyl)pyrrolidin-3-yl)acetamide] | 100 to 500 | 0.01 to 100
6 | CCc1nc2ccc(N3CCN(CC(=O)N(C)C)CC3)cn2c1N(C)c1nc(-c2ccc(F)cc2)cs1 [Compound 35, 2-(4-(2-ethyl-3-((4-(4-fluorophenyl)thiazol-2-yl)(methyl)amino)imidazo[1,2-a]pyridin-6-yl)piperazin-1-yl)-N,N-dimethylacetamide] | 100 to 500 | 0.01 to 100
7 | CCc1nc2ccc(C3CCN(S(C)(=O)=O)CC3)cn2c1N(C)c1nc(-c2ccc(F)cc2)c(Br)s1 [Compound 135, 5-bromo-N-(2-ethyl-6-(1-(methylsulfonyl)piperidin-4-yl)imidazo [1,2-a]pyridin-3-yl)-4-(4-fluorophenyl)-N-methylthiazol-2-amine] | – | 0.01 to 100
8 | CCc1nc2ccc(C3CCN(CC4CN(C)C(=O)O4)CC3)cn2c1N(C)c1nc(-c2ccc(F)cc2)cs1 (stereo not drawn) [Compound 195, 5-((4-(2-ethyl-3-((4-(4-fluorophenyl)thiazol-2-yl)(methyl)amino)imidazo[1,2-a]pyridin-6-yl)piperidin-1-yl)methyl)-3-methyloxazolidin-2-one] | > 1000 | –
9 | CCc1nc2ccc(C3CCN(C[C@H]4CNC(=O)O4)CC3)cn2c1N(C)c1nc(-c2ccc(F)cc2)cs1 [Compound 196, (R)-5-((4-(2-ethyl-3-((4-(4-fluorophenyl)thiazol-2-yl)(methyl)amino)imidazo[1,2-a]pyridin-6-yl)piperidin-1-yl)methyl)oxazolidin-2-one] | > 1000 | –
10 | CCc1nc2ccc(C3CCN(C[C@@H]4CNC(=O)O4)CC3)cn2c1N(C)c1nc(-c2ccc(F)cc2)cs1 [Compound 197, (S)-5-((4-(2-ethyl-3-((4-(4-fluorophenyl)thiazol-2-yl)(methyl)amino)imidazo[1,2-a]pyridin-6-yl)piperidin-1-yl)methyl)oxazolidin-2-one] | > 1000 | –
11 | CCc1nc2ccc(C3CCN(CC4COC(=O)N4)CC3)cn2c1N(C)c1nc(-c2ccc(F)cc2)cs1 (stereo not drawn) [Compound 198, 4-((4-(2-ethyl-3-((4-(4-fluorophenyl)thiazol-2-yl)(methyl)amino)imidazo[1,2-a]pyridin-6-yl)piperidin-1-yl)methyl)oxazolidin-2-one] | > 1000 | –
12 | CCc1nc2ccc(N3CCN(C(=O)C4(N)CC4)CC3)cn2c1N(C)c1nc(-c2ccc(F)cc2)cs1 [Compound 202, (1-aminocyclopropyl)(4-(2-ethyl-3-((4-(4-fluorophenyl)thiazol-2-yl)(methyl)amino)imidazo[1,2-a]pyridin-6-yl)piperazin-1-yl)methanone] | > 1000 | –
13 | CCc1nc2ccc(N3CCN(C(=O)C4CC(=O)N(Cc5ccccc5)C4)CC3)cn2c1N(C)c1nc(-c2ccc(F)cc2)cs1 (stereo not drawn) [Compound 205, 1-Benzyl-4-[4-(2-ethyl-3-{[4-(4-fluoro-phenyl)-thiazol-2-yl]-methyl-amino}-imidazo[1,2-a]pyridin-6-yl)-piperazine-1-carbonyl]-pyrrolidin-2-one] | 500 to 1000 | –
14 | CCc1nc2ccc(C3CCN(CC(=O)N4CCC(O)C4)CC3)cn2c1N(C)c1nc(-c2ccc(F)cc2)cs1 (stereo not drawn) [Compound 223, 2-(4-(2-ethyl-3-((4-(4-fluorophenyl)thiazol-2-yl)(methyl)amino)imidazo[1,2-a]pyridin-6-yl)piperidin-1-yl)-1-(3-hydroxypyrrolidin-1-yl)ethanone] | 100 to 500 | –

The next lines start with the values.

Row | IC50 [1] [nM] | IC50 [2] [nM] | SMILES
15 | > 1000 | – | CCOC(=O)C(=O)N1CCN(c2ccc3nc(CC)c(N(C)c4nc(-c5ccc(F)cc5)cs4)n3c2)CC1 [Compound 228, ethyl 2-(4-(2-ethyl-3-((4-(4-fluorophenyl)thiazol-2-yl)(methyl)amino)imidazo[1,2-a]pyridin-6-yl)piperazin-1-yl)-2-oxoacetate]
16 | – | 0.01 to 100 | CCc1nc2ccc(C3=CCN(C(=O)OC(C)(C)C)CC3)cn2c1N(C)c1nc(-c2ccc(Cl)cc2)cs1 [Compound 230, tert-butyl 4-(3-((4-(4-chlorophenyl)thiazol-2-yl)(methyl)amino)-2-ethylimidazo[1,2-a]pyridin-6-yl)-5,6-dihydropyridine-1(2H)-carboxylate]
17 | – | 0.01 to 100 | CCc1nc2ccc(C3=CCSCC3)cn2c1N(C)c1nc(-c2ccc(Cl)cc2)cs1 [Compound 231, 4-(4-chlorophenyl)-N-(6-(3,6-dihydro-2H-thiopyran-4-yl)-2-ethylimidazo[1,2-a]pyridin-3-yl)-N-methylthiazol-2-amine]
18 | – | 0.01 to 100 | CCc1nc2ccc(N3CCC(F)(F)CC3)cn2c1N(C)c1nc(-c2ccc(F)cc2)cs1 [Compound 232, N-(6-(4,4-difluoropiperidin-1-yl)-2-ethylimidazo[1,2-a]pyridin-3-yl)-4-(4-fluorophenyl)-N-methylthiazol-2-amine]
19 | – | 0.01 to 100 | CCc1nc2ccc(N3CCN(C(=O)OC(C)(C)C)CC3)cn2c1N(C)c1nc(-c2ccc(Cl)cc2)cs1 [Compound 234, tert-butyl 4-(3-((4-(4-chlorophenyl)thiazol-2-yl)(methyl)amino)-2-ethylimidazo[1,2-a]pyridin-6-yl)piperazine-1-carboxylate]
20 | – | 0.01 to 100 | CCc1nc2ccc(C3CCN(CC4CCCCC4)CC3)cn2c1N(C)c1nc(-c2ccc(F)cc2)cs1 [Compound 235, N-(6-(1-(cyclohexylmethyl)piperidin-4-yl)-2-ethylimidazo[1,2-a]pyridin-3-yl)-4-(4-fluorophenyl)-N-methylthiazol-2-amine]
21 | – | 100 to 500 | CCc1nc2ccc(C3=NCC(C)O3)cn2c1N(C)c1nc(-c2ccc(F)cc2)cs1 (stereo not drawn) [Compound 236, N-(2-ethyl-6-(5-methyl-4,5-dihydrooxazol-2-yl)imidazo[1,2-a]pyridin-3-yl)-4-(4-fluorophenyl)-N-methylthiazol-2-amine]
22 | – | 0.01 to 100 | CCc1nc2ccc(C3=NC(C)CO3)cn2c1N(C)c1nc(-c2ccc(F)cc2)cs1 (stereo not drawn) [Compound 237, N-(2-ethyl-6-(4-methyl-4,5-dihydrooxazol-2-yl)imidazo[1,2-a]pyridin-3-yl)-4-(4-fluorophenyl)-N-methylthiazol-2-amine]
23 | – | 100 to 500 | CCc1nc2ccc(C3=NC(C(=O)O)CO3)cn2c1N(C)c1nc(-c2ccc(F)cc2)cs1 (stereo not drawn) [Compound 238, 2-(2-ethyl-3-((4-(4-fluorophenyl)thiazol-2-yl)(methyl)amino)imidazo[1,2-a]pyridin-6-yl)-4,5-dihydro-oxazole-4-carboxylic acid]
24 | – | 0.01 to 100 | CCc1nc2ccc(N3CCNCC3)cn2c1N(C)c1nc(-c2ccc(F)cc2)cs1 [Gen-10-e]
